This assay addresses Polθ theta (1-899) (hPolQ) (Homo sapiens (Human), UniProt O75417). The assay is described as follows: Biological Assay 1: Polθ ATPase activity, NADH oxidation-coupled enzymatic assay (10 nM enzyme, 30 min). Type of assay: biochemical. Conditions: Polθ (1-899) 10 nM, 100 μM ATP, 300 nM dT50 ssDNA, read-out: ATPase NADH coupling:Standard Screening:hPolQ IC50. As to the method:
The ability of the compounds of Formula (I), (II), (III), (IV), or Table 1 (Examples 1 to Example 268) to inhibit ATPase activity of Polθ theta (1-899) was determined using the assay described below.
Polθ Theta ATPase activity was determined by measuring the rate of ATP turn over in a NADH oxidation-coupled enzymatic assay. 10-point dilution series of compounds were used in a 384 well format for the inhibition assays. Polθ theta (1-899) (10 nM) in assay buffer (20 mM Tris HCl (pH 7.80), 80 mM KCl, 10 mM MgCl2, 1 mM DTT, 0.01% BSA, 0.01% Tween, 5% glycerol) was transferred to the test wells (20 μL), except the low control wells (20 μL of assay buffer was added to the low control wells). The plate was then incubated at room temperature for 15 min. An equal volume (20 μL) of 100 μM ATP, 300 nM dT50 (single-stranded DNA (ssDNA) containing 50 thymine bases), 300 μM NADH, 6 mM PEP, 10 U/mL lactate dehydrogenase and U/mL pyruvate kinase in assay buffer was added to all the test wells. The plate was then centrifuged at 1000 rpm for 1 min. The reaction was monitored for 30 min by measuring absorbance (λ=340 nm) in a Tecan Spark multimode plate reader every minute. The high control (DMSO with enzyme) with low absorbance intensity represents no inhibition of ATPase reaction while the low control (DMSO with buffer) with high absorbance intensity represents full inhibition of ATPase activity. Slope of the reaction progress curves were used to calculate the rate of ATP hydrolysis. The rates were used to determine the percent inhibition using a four-parameter inhibition model to generate IC50, Hill slope and max inhibition.

Read-outs that look alike come from different tables or passages of the source.

Here are results for 29 molecules from patent US20250325552A1, “SUBSTITUTED THIADIAZOLYL DERIVATIVES AS DNA POLYMERASE THETA INHIBITORS” (IDEAYA Biosciences, Inc., priority 2020, published 2025).

Chain of Polθ theta (1-899) (hPolQ) (O75417 1-899): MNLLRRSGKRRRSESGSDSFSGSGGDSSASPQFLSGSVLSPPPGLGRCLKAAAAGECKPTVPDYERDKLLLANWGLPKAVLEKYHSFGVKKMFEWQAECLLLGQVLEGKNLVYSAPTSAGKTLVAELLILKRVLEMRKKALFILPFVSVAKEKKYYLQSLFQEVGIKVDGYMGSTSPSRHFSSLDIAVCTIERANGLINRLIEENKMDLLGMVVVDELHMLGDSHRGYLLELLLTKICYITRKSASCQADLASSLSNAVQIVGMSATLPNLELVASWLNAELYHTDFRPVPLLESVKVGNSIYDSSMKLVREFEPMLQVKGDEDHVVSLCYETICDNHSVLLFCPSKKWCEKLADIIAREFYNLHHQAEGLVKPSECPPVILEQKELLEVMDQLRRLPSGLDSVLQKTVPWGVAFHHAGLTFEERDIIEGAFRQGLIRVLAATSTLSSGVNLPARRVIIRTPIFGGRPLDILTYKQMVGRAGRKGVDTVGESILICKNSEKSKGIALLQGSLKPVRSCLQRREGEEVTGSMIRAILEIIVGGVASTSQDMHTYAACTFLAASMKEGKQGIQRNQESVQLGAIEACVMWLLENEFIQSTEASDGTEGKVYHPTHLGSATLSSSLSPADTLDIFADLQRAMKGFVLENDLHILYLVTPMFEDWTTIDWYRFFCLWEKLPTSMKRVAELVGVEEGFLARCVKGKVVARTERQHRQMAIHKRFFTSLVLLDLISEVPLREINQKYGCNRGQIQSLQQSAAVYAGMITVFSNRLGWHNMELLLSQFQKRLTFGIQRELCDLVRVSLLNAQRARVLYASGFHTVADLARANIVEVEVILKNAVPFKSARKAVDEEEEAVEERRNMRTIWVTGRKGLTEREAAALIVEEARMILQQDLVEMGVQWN

For orientation: IC50 means the midpoint of a concentration-inhibition curve. Consider `COc1cnc(Cl)cc1-c1cc(C)ncc1C(=O)Nc1nnc(OCC2CCCC2O)s1` (centres unmarked) [Example 261, 2′-chloro-N-(5-((2-hydroxycyclopentyl)methoxy)-1,3,4-thiadiazol-2-yl)-5′-methoxy-6-methyl-(4,4′-bipyridine)-3-carboxamide], for which the IC50 (Examples 1 to 268) was at most 0.2 µM.
The same measure, in the same setting: then `COc1cnc(Cl)cc1-c1cc(C)ncc1C(=O)Nc1nnc(OCc2ccc(Cl)cn2)s1` [Example 8, 2′-chloro-N-(5-((5-chloropyridin-2-yl)methoxy)-1,3,4-thiadiazol-2-yl)-5′-methoxy-6-methyl-[4,4′-bipyridine]-3-carboxamide], with at most 0.2 µM.
Same read-out and setting: then `COc1cccc(F)c1-c1cc(C)ncc1C(=O)Nc1nnc(OCC23CC(CO)(C2)C3)s1` [Example 132, 4-(2-fluoro-6-methoxyphenyl)-N-(5-((3-(hydroxymethyl)bicyclo(1.1.1)pentan-1-yl)methoxy)-1,3,4-thiadiazol-2-yl)-6-methylpyridine-3-carboxamide], with at most 0.2 µM.
Same read-out and setting: then `COc1cnc(Br)cc1-c1cc(C)ncc1C(=O)Nc1nnc(OC[C@@H]2CCOC2)s1` (single isomer, unassigned) [Example 245], with at most 0.2 µM; and `COc1c(-c2cc(C)ncc2C(=O)Nc2nnc(OCc3ccc(Cl)cn3)s2)ccnc1C#N` [Example 85, N-(5-((5-chloropyridin-2-yl)methoxy)-1,3,4-thiadiazol-2-yl)-2′-cyano-3′-methoxy-6-methyl-[4,4′-bipyridine]-3-carboxamide], with at most 0.2 µM; and `COc1ccccc1-c1cc(C)ncc1C(=O)Nc1nnc(O[C@@H](C)c2ccc(Cl)cn2)s1` [Example 11, (S)—N-(5-(1-(5-chloropyridin-2-yl)ethoxy)-1,3,4-thiadiazol-2-yl)-4-(2-methoxyphenyl)-6-methylnicotinamide], with at most 0.2 µM.
In the case of `COc1cccc(F)c1-c1cc(C)ncc1C(=O)Nc1nnc(OCC23CCC(O)(CC2)C3)s1` [Example 112, 4-(2-fluoro-6-methoxyphenyl)-N-(5-((4-hydroxybicyclo(2.2.1)heptan-1-yl)methoxy)-1,3,4-thiadiazol-2-yl)-6-methylpyridine-3-carboxamide], the IC50 (Examples 1 to 268) was at most 0.2 µM.
Still for that read-out and setting: then `COCc1cccc(COc2nnc(NC(=O)c3cnc(C)cc3-c3ccccc3OC)s2)n1` [Example 26, N-(5-((6-(methoxymethyl)pyridin-2-yl)methoxy)-1,3,4-thiadiazol-2-yl)-4-(2-methoxyphenyl)-6-methylnicotinamide], with 0.2 to 0.5 µM.
Same read-out and setting: then `COc1cccc(F)c1-c1cnncc1C(=O)Nc1nnc(OCc2ccc(C(C)(C)O)cn2)s1` [Example 81, 5-(2-fluoro-6-methoxyphenyl)-N-(5-((5-(2-hydroxypropan-2-yl)pyridin-2-yl)methoxy)-1,3,4-thiadiazol-2-yl)pyridazine-4-carboxamide], with at most 0.2 µM; and `COc1cccc(F)c1-c1cc(C)ncc1C(=O)Nc1nnc(OCc2ccc([S@@](C)(=N)=O)cn2)s1` [Example 150, 4-(2-fluoro-6-methoxyphenyl)-6-methyl-N-(5-((5-((S)—S-methylsulfonimidoyl)pyridin-2-yl)methoxy)-1,3,4-thiadiazol-2-yl)nicotinamide], with at most 0.2 µM.
Still for that read-out and setting: then `COc1cnc(Cl)cc1-c1cc(C)ncc1C(=O)Nc1nnc(OCC2(C#N)CC2)s1` [Example 205, 2′-chloro-N-(5-((1-cyanocyclopropyl)methoxy)-1,3,4-thiadiazol-2-yl)-5′-methoxy-6-methyl-(4,4′-bipyridine)-3-carboxamide], with at most 0.2 µM.
For `COc1cnc(Cl)cc1-c1cc(C)ncc1C(=O)Nc1nnc(OCc2ccc3c(n2)OCCO3)s1` [Example 51, 2′-chloro-N-(5-((2,3-dihydro-[1,4]dioxino[2,3-b]pyridin-6-yl)methoxy)-1,3,4-thiadiazol-2-yl)-5′-methoxy-6-methyl-[4,4′-bipyridine]-3-carboxamide], the IC50 (Examples 1 to 268) was at most 0.2 µM.
Still for that read-out and setting: then `COc1cccc(F)c1-c1cc(C)ncc1C(=O)Nc1nnc(OCc2ncc(C(C)(C)O)cc2F)s1` [Example 87, N-(5-((3-fluoro-5-(2-hydroxypropan-2-yl)pyridin-2-yl)methoxy)-1,3,4-thiadiazol-2-yl)-4-(2-fluoro-6-methoxyphenyl)-6-methylpyridine-3-carboxamide], with at most 0.2 µM; and `COc1cccc(F)c1-c1cc(C)ncc1C(=O)Nc1nnc(OCC23CC(O)(C2)C3)s1` [Example 61, 4-(2-fluoro-6-methoxyphenyl)-N-(5-((3-hydroxybicyclo(1.1.1)pentan-1-yl)methoxy)-1,3,4-thiadiazol-2-yl)-6-methylnicotinamide], with at most 0.2 µM.
On the same count and under the same terms, then `Cc1cc(-c2cc(Cl)ncc2OC(F)F)c(C(=O)Nc2nnc(OC[C@H]3COCCO3)s2)cn1` [Example 234, (R)—N-(5-((1,4-dioxan-2-yl)methoxy)-1,3,4-thiadiazol-2-yl)-2′-chloro-5′-(difluoromethoxy)-6-methyl-(4,4′-bipyridine)-3-carboxamide], with at most 0.2 µM; and `COc1ccc(C)cc1-c1cc(C)ncc1C(=O)Nc1nnc(OCc2ccc(Cl)cn2)s1` [Example 44, N-(5-((5-chloropyridin-2-yl)methoxy)-1,3,4-thiadiazol-2-yl)-4-(2-methoxy-5-methylphenyl)-6-methylpyridine-3-carboxamide], with at most 0.2 µM.
As to `COc1cnc(C)cc1-c1cc(C)ncc1C(=O)Nc1nnc(OC[C@H]2CC[C@@H](O)CC2)s1` [Example 127, N-(5-(((1s,4s)-4-hydroxycyclohexyl)methoxy)-1,3,4-thiadiazol-2-yl)-5′-methoxy-2′,6-dimethyl-[4,4′-bipyridine]-3-carboxamide], the IC50 (Examples 1 to 268) is at most 0.2 µM.
Same read-out and setting: then `COc1cnc(Cl)cc1-c1cc(C)ncc1C(=O)Nc1nnc(OCC23CCC(O)(CC2)CC3)s1` [Example 136, 2′-chloro-N-(5-((4-hydroxybicyclo(2.2.2)octan-1-yl)methoxy)-1,3,4-thiadiazol-2-yl)-5′-methoxy-6-methyl-(4,4′-bipyridine)-3-carboxamide], with at most 0.2 µM; and `COc1cnc(Cl)cc1-c1cc(C)ncc1C(=O)Nc1nnc(OC[C@@H]2CC[C@@H](O)C2)s1` (single isomer, unassigned) [Example 209], with at most 0.2 µM.
On the same count and under the same terms, then `COc1cnc(Cl)cc1-c1cc(C)ncc1C(=O)Nc1nnc(OC[C@@H]2CC[C@H](O)C2)s1` (single isomer, unassigned) [Example 211], with at most 0.2 µM.
As to `O=C(Nc1nnc(OCC2CCOCC2)s1)c1cccnc1N1CCOCC1` [Example 157, 2-morpholino-N-(5-((tetrahydro-2H-pyran-4-yl)methoxy)-1,3,4-thiadiazol-2-yl)nicotinamide], the IC50 (value printed as bound) is over 10 µM.
With `COc1ccccc1-c1cc(C)ncc1C(=O)Nc1nnc(OCc2cc(CO)ccn2)s1` [Example 42, N-(5-((4-(hydroxymethyl)pyridin-2-yl)methoxy)-1,3,4-thiadiazol-2-yl)-4-(2-methoxyphenyl)-6-methylpyridine-3-carboxamide], the IC50 (Examples 1 to 268) lay within 0.2 to 0.5 µM.
Still for that read-out and setting: then `COc1ccc(COc2nnc(NC(=O)c3cnc(C)cc3-c3c(F)cccc3OC)s2)nc1` [Example 20, 4-(2-fluoro-6-methoxyphenyl)-N-(5-((5-methoxypyridin-2-yl)methoxy)-1,3,4-thiadiazol-2-yl)-6-methylpyridine-3-carboxamide], with at most 0.2 µM; and `Cc1cc(-c2cc(Cl)ncc2OC(F)F)c(C(=O)Nc2nnc(OC[C@H]3CCOC3)s2)cn1` (single isomer, unassigned) [Example 257], with at most 0.2 µM; and `COc1cnc(Cl)cc1-c1cc(C)ncc1C(=O)Nc1nnc(OC[C@H]2COC3(CCC3)C2)s1` (single isomer, unassigned) [Example 227], with at most 0.2 µM.
The same measure, in the same setting: then `COc1cnc(Cl)cc1-c1cc(C)ncc1C(=O)Nc1nnc(OC[C@@H]2COCC(C)(C)O2)s1` (single isomer, unassigned) [Example 220], with at most 0.2 µM; and `COc1ccc(Cl)cc1-c1cc(C)ncc1C(=O)Nc1nnc(OCc2ccc(C(C)(C)O)cn2)s1` [Example 96, 4-(5-chloro-2-methoxyphenyl)-N-(5-((5-(2-hydroxypropan-2-yl)pyridin-2-yl)methoxy)-1,3,4-thiadiazol-2-yl)-6-methylnicotinamide], with at most 0.2 µM.
The same measure, in the same setting: then `COc1ccc(COc2nnc(NC(=O)c3cnc(C)cc3-c3ccccc3OC(F)F)s2)nc1` [Example 53, 4-(2-(difluoromethoxy)phenyl)-N-(5-((5-methoxypyridin-2-yl)methoxy)-1,3,4-thiadiazol-2-yl)-6-methylnicotinamide], with at most 0.2 µM; and `COc1ccc(Cl)cc1-c1cnncc1C(=O)Nc1nnc(OCC23CCC(F)(CC2)CC3)s1` [Example 142, 5-(5-chloro-2-methoxyphenyl)-N-(5-((4-fluorobicyclo(2.2.2)octan-1-yl)methoxy)-1,3,4-thiadiazol-2-yl)pyridazine-4-carboxamide], with at most 0.2 µM.
